Here are results for three molecules from patent publication US20050175976A1, “Meiosis activating sterol augments implantation rate” (priority 1999, published 2005).

Marks after values point to notes of the source that are not given here.

The test system of assay [1] is mouse cumulus enclosed oocytes. As to the kind of experiment: Induction of resumption of meiosis in mouse cumulus enclosed oocytes exposed to AY9944-A-7. In kind it is cell-based. The method, then:
Immature female C57BI/2J B6D2 mice (11-15 g) were stimulated with exogenous gonadotropins (7.5 IU per mouse; Gonadoplex, Leo, Ballerup, Denmark). Forty-eight hours after injection with gonadotropins, the mice were sacrificed and the ovaries removed. Cumulus enclosed oocytes (CEO) were recovered by puncturing individual follicles and collected in a culture medium (a-MEM, Gibco, BRL) supplemented with 3 mg/ml bovine serum albumin, 5 mg/ml human serum albumin, 2 mM L-glutamine, 100 IU/ml penicillin, 100 μg/ml streptomycin and 4 mM hypoxanthine (control medium).
Induction of resumption of meiosis in mouse cumulus enclosed oocytes exposed to an inhibitor of sterol Δ14-reductase (AY9944-A-7) during culture.
Oocytes from 10-15 mice were pooled and randomly divided into the different test groups. The tests were performed using 4-well dishes (Nunclon, Roskilde, Denmark) each well containing 20-50 oocytes in 400 μl culture medium. Each dish had one well serving as control and the three other wells as tests.
All test media were prepared using HX-medium. AY9944-A-7 (AY) was kindly provided by Wyeth-Ayerst, Princeton, N.J., USA. AY has no structural similarities to MAS. Stock solutions of AY9944 in water were stored at −20° C., and was added directly to the HX-medium immediately prior to oocyte culture. AY was used in concentrations from 0.2 to 25 μM.

The test system of assay [2] is sterol 14-reductase (Δ14R). As to conditions: AY 0.1 μM, cultured rat hepatocytes; cited from earlier work.
Assay [3] relates to mouse cumulus enclosed oocytes. As to the kind of experiment: Resumption of meiosis (GVBD) in mouse cumulus enclosed oocytes exposed to Amphotericin B. Format: cell-based. How it is done:
Amphotericin B is a medical product used against fungal infections by inhibiting cholesterol biosynthesis. It has no structural similarities to MAS. Its effect on resumption of meiosis was tested on mouse cumulus enclosed oocytes, in vitro. Ovarian stimulation was performed on immature female mice and the cumulus enclosed oocytes (CEO) isolated as described in Example 3.
Cumulus enclosed oocytes were cultured separately in 4-well dishes (Nuncleon, Roskilde, Denmark), 0.4 ml medium in each well containing control medium or medium supplemented with Amphotericin B (Bristol-Myers Squibb) in a 100% humidified atmosphere of 5% CO2 with 95% air at 37° C.
The effect of Amphotericin in concentrations of 0.6 and 1.2 μg/ml was evaluated after 22 hours in culture.
In another series of experiments, i.e. priming of CEO, the culture period with Amphotericin, priming period, varied from 5 min. to 240 min. in test medium with 1.2 μg/ml Amphotericin. After the priming period, the CEO were transferred to control medium and the culture continued for a total of 22 hours.
By the end of the culture period, germinal […] breakdown (GVBD) was scored by examining the oocyte in an inverted microscope. The percentage of oocytes with GVBD per total number of oocytes (% GVBD) was calculated.

Assay [4] has as its system mouse cumulus enclosed oocytes. In words: Resumption of meiosis (GVBD) of mouse oocytes cultured in vitro with FSH and/or EGF. In kind it is cell-based. To be noted: EGF 0.5 ng/ml, 22-24 h, HX-medium. The method, then:
Immature female mice (B6D2-F1 strain C57B1/2J) were kept under controlled light and temperature conditions with free access to food and water. […] The percentage of oocytes with GVBD per total number of oocytes (% GVBD) was calculated.

Regarding `Cl.Cl.Clc1ccccc1CNCC1CCC(CNCc2ccccc2Cl)CC1` (stereo not shown) [AY, AY9944-A-7], the “Oocyte maturation of CEO (FIG. 2)” value in assay [1] (AY 0.2 to 25 μM in HX-medium) is given as “stimulates oocyte maturation of CEO in a dose-dependent way”. Also, the “GVBD compared to the controls (FIG. 2)” value in assay [1] (AY 5, 10 and 25 μM, p<0.05, p<0.001 and p<0.001) is listed as “increase GVBD significantly”. In assay [2], the “Mode of action on Δ14R” value was “competitive inhibitor”.

As for `C[C@@H]1[C@H](O)[C@@H](C)/C=C/C=C/C=C/C=C/C=C/C=C/C=C/[C@H](O[C@@H]2O[C@H](C)[C@@H](O)[C@H](N)[C@@H]2O)C[C@@H]2O[C@](O)(C[C@@H](O)C[C@@H](O)[C@H](O)CC[C@@H](O)C[C@@H](O)CC(=O)O[C@H]1C)C[C@H](O)[C@H]2C(=O)O` [Amfotericin, Amphotericin B], the “% GVBD” value in assay [3] (0.6 μg/ml, 22 hours in culture, 94 oocytes) came to 28%; in assay [3] (1.2 μg/ml priming 5 minutes, then control medium to 22 hours, 98 oocytes), 21%; in assay [3] (1.2 μg/ml priming 10 minutes, then control medium to 22 hours, 88 oocytes), 29%; in assay [3] (1.2 μg/ml priming 30 minutes, then control medium to 22 hours, 116 oocytes), 36%; in assay [3] (1.2 μg/ml priming 120 minutes, then control medium to 22 hours, 50 oocytes), 50%; in assay [3] (1.2 μg/ml priming 240 minutes, then control medium to 22 hours, 49 oocytes), 69%. In addition, in assay [3] (1.2 μg/ml, 22 hours in culture, 121 oocytes), the “% GVBD” value is given as 76%. In addition, the “No. of GVBD” value was 26 in assay [3] (0.6 μg/ml, 22 hours in culture, of 94 oocytes); 21 in assay [3] (1.2 μg/ml priming 5 minutes, then control medium to 22 hours, of 98 oocytes); 26 in assay [3] (1.2 μg/ml priming 10 minutes, then control medium to 22 hours, of 88 oocytes); 42 in assay [3] (1.2 μg/ml priming 30 minutes, then control medium to 22 hours, of 116 oocytes); 25 in assay [3] (1.2 μg/ml priming 120 minutes, then control medium to 22 hours, of 50 oocytes); 34 in assay [3] (1.2 μg/ml priming 240 minutes, then control medium to 22 hours, of 49 oocytes). For the same molecule, in assay [3] (1.2 μg/ml, 22 hours in culture, of 121 oocytes), the “No. of GVBD” value is 92.

As to EGF: epidermal growth factor, the “% GVBD” value in assay [4] (68 oocytes) is on record as 31^c,d %. In addition, the “No. of GVBD” value in assay [4] (of 68 oocytes) is 21.
